Each structure is given as a SMILES string. Structures can show the parent of a compound that is named as a salt.

Data on eleven compounds can be found in patent publication US9328138B2 (priority 2011, dated 2016).

Experiment [1] has as its target T1, HCV genotype 1b (BK) NS3 modified enzyme with a R155K mutation (Hepatitis C virus genotype 1b, UniProt P26663, R1181K).
T1 construct: HCV genotype 1b (BK) NS3 modified enzyme
The experiment is described as follows: HCV NS3 protease time-resolved fluorescence (TRF) assay, genotype 1b R155K. The format is biochemical. Particulars: Ki 1b R155K. In a few lines:
(§1)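 Assay buffer: 50 mM HEPES pH 7.5, 150 mM NaCl, 0.1% PEG 8000, 0.15% Triton X-100. Ten-minute enzyme–inhibitor preincubation; substrate at 25 nM final; 6 h reaction, room temperature; signal/background set at 5-20 by enzyme amount.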

The target in experiment [2] is HCV NS3 protease genotype 3a (3A-1) (Hepatitis C virus genotype 3a, UniProt Q81258). The experiment is described as follows: HCV NS3 protease time-resolved fluorescence (TRF) assay, genotype 3a. Type of experiment: biochemical. Particulars: Ki 3a. An outline of the steps:
as §1

Setting [3] is: first of two values printed in the cell (not explained).
Where [4] appears, read: second of two values printed in the cell (not explained).

Broadly, the Ki is the equilibrium dissociation constant of an inhibitor or competing ligand from its target. High values mean weaker binding, low ones tighter binding. For the compound `C=C[C@@H]1C[C@]1(NC(=O)[C@@H]1C[C@@H]2CN1C(=O)[C@H](C1(C)CCCCC1)NC(=O)O[C@@H]1C[C@H]1CCCCCc1c(nc3ccccc3c1OCCCN1CCCOCC1)O2)C(=O)NS(=O)(=O)C1(C)CC1` [Example 270, (1aR,5S,8S,10R,22aR)—N-[(1R,2S)-2-ethenyl-1-{[(1-methylcyclopropyl)sulfonyl]carbamoyl}cyclopropyl]-5-(1-methylcyclohexyl)-17-[3-(1,4-oxazepan-4-yl)propoxy]-3,6-dioxo-1,1a,3,4,5,6,9,10,18,19,20,21,22,22a-tetradecahydro-8H-7,10-methanocyclopropa[18,19][1,10,3,6]dioxadiazacyclononadecino[11,12-b]quinoline-8-carboxamide], the figures for the Ki in experiment [1] (setting [3]), in experiment [1] (setting [4]) and in experiment [2] were 0.021 nM, 0.18 nM and 1.4 nM, respectively.

As for `C=C[C@@H]1C[C@]1(NC(=O)[C@@H]1C[C@@H]2CN1C(=O)[C@H](C1CCCCC1)NC(=O)O[C@@H]1C[C@H]1CCCCCc1c(nc3ccccc3c1OC1CCN(CCS(C)(=O)=O)CC1)O2)C(=O)NS(=O)(=O)C1(C)CC1` [Example 271, (1aR,5S,8S,10R,22aR)-5-cyclohexyl-N-[(1R,2S)-2-ethenyl-1-{[(1-methylcyclopropyl)sulfonyl]carbamoyl}cyclopropyl]-17-({1-[2-(methylsulfonyl)ethyl]piperidin-4-yl}oxy)-3,6-dioxo-1,1a,3,4,5,6,9,10,18,19,20,21,22,22a-tetradecahydro-8H-7,10-methanocyclopropa[18,19][1,10,3,6]dioxadiazacyclononadecino[11,12-b]quinoline-8-carboxamide], the Ki stood at 0.023 nM in experiment [1] (setting [3]), 0.215 nM in experiment [1] (setting [4]) and 5.2 nM in experiment [2].

`C=C[C@@H]1C[C@]1(NC(=O)[C@@H]1C[C@@H]2CN1C(=O)[C@H](C1CCCCC1)NC(=O)O[C@@H]1C[C@H]1CCCCCc1c(nc3ccccc3c1OC1CCN(CCF)CC1)O2)C(=O)NS(=O)(=O)C1(C)CC1` [Example 272, 4-{[(1aR,5S,8S,10R,22aR)-5-cyclohexyl-8-{[(1R,2S)-2-ethenyl-1-{[(1-methylcyclopropyl)sulfonyl]carbamoyl}cyclopropyl]carbamoyl}-3,6-dioxo-1,1a,3,4,5,6,9,10,18,19,20,21,22,22a-tetradecahydro-8H-7,10-methanocyclopropa[18,19][1,10,3,6]dioxadiazacyclononadecino[11,12-b]quinolin-17-yl]oxy}-1-(2-fluoroethyl)piperidinium formate]: the results for the Ki in experiment [1] (setting [3]), in experiment [1] (setting [4]) and in experiment [2] were 0.015 nM, 0.128 nM and 2.12 nM, respectively.

On to `C=C[C@@H]1C[C@]1(NC(=O)[C@@H]1C[C@@H]2CN1C(=O)[C@H](C(C)(C)C)NC(=O)O[C@@H]1C[C@H]1CCCCCc1c(nc3ccccc3c1OC1CC3CCC(C1)N3CC(F)(F)F)O2)C(=O)NS(=O)(=O)C1(C)CC1` (stereo partly drawn) [Example 275, potassium {[(1R,2S)-1-({[(1aR,5S,8S,10R,22aR)-5-tert-butyl-3,6-dioxo-17-{[8-(2,2,2-trifluoroethyl)-8-azabicyclo[3.2.1]oct-3-yl]oxy}-1,1a,3,4,5,6,9,10,18,19,20,21,22,22a-tetradecahydro-8H-7,10-methanocyclopropa[18,19][1,10,3,6]dioxadiazacyclononadecino[11,12-b]quinolin-8-yl]carbonyl}amino)-2-ethenylcyclopropyl]carbonyl}[(1-methylcyclopropyl)sulfonyl]azanide], for which the Ki in experiment [1] (setting [3]) amounted to 0.11 nM; in experiment [1] (setting [4]) it was 1.15 nM; in experiment [2], 16 nM.

On to `C=C[C@@H]1C[C@]1(NC(=O)[C@@H]1C[C@@H]2CN1C(=O)[C@H](C1CCCCC1)NC(=O)O[C@@H]1C[C@H]1CCCCCc1c(nc3ccccc3c1OC1CC3CCC(C1)N3C(=O)OC(C)(C)C)O2)C(=O)NS(=O)(=O)C1(C)CC1` (stereo partly drawn) [Example 282, tert-butyl 3-{[(1aR,5S,8S,10R,22aR)-5-cyclohexyl-8-{[(1R,2S)-2-ethenyl-1-{[(1-methylcyclopropyl)sulfonyl]carbamoyl}cyclopropyl]carbamoyl}-3,6-dioxo-1,1a,3,4,5,6,9,10,18,19,20,21,22,22a-tetradecahydro-8H-7,10-methanocyclopropa[18,19][1,10,3,6]dioxadiazacyclononadecino[11,12-b]quinolin-17-yl]oxy}-8-azabicyclo[3.2.1]octane-8-carboxylate], for which the Ki in experiment [1] (setting [3]) is 0.14 nM; in experiment [1] (setting [4]) it was 5.3 nM; in experiment [2], 140 nM.

As to `C=C[C@@H]1C[C@]1(NC(=O)[C@@H]1C[C@@H]2CN1C(=O)[C@H](C1CCCCC1)NC(=O)O[C@@H]1C[C@H]1CCCCCc1c(nc3ccccc3c1OC1CC3CCC(C1)N3)O2)C(=O)NS(=O)(=O)C1(C)CC1` (stereo partly drawn) [Example 283, potassium {[(1R,2S)-1-({[(1aR,5S,8S,10R,22aR)-17-(8-azabicyclo[3.2.1]oct-3-yloxy)-5-cyclohexyl-3,6-dioxo-1,1a,3,4,5,6,9,10,18,19,20,21,22,22a-tetradecahydro-8H-7,10-methanocyclopropa[18,19][1,10,3,6]dioxadiazacyclononadecino[11,12-b]quinolin-8-yl]carbonyl}amino)-2-ethenylcyclopropyl]carbonyl}[(1-methylcyclopropyl)sulfonyl]azanide], the values for the Ki in experiment [1] (setting [3]), in experiment [1] (setting [4]) and in experiment [2] were 0.014 nM, 0.022 nM and 0.108 nM, respectively.

In the case of `C=C[C@@H]1C[C@]1(NC(=O)[C@@H]1C[C@@H]2CN1C(=O)[C@H](C1CCCCC1)NC(=O)O[C@@H]1C[C@H]1CCCCCc1c(nc3ccccc3c1OC1CC3CCC(C1)N3CCOC)O2)C(=O)NS(=O)(=O)C1(C)CC1` (stereo partly drawn) [Example 284, (1aR,5S,8S,10R,22aR)-5-cyclohexyl-N-[(1R,2S)-2-ethenyl-1-{[(1-methylcyclopropyl)sulfonyl]carbamoyl}cyclopropyl]-17-{[8-(2-methoxyethyl)-8-azabicyclo[3.2.1]oct-3-yl]oxy}-3,6-dioxo-1,1a,3,4,5,6,9,10,18,19,20,21,22,22a-tetradecahydro-8H-7,10-methanocyclopropa[18,19][1,10,3,6]dioxadiazacyclononadecino[11,12-b]quinoline-8-carboxamide], the Ki in experiment [1] (setting [3]) came to 0.023 nM; in experiment [1] (setting [4]), 0.053 nM; in experiment [2], 0.28 nM.

Consider `C=C[C@@H]1C[C@]1(NC(=O)[C@@H]1C[C@@H]2CN1C(=O)[C@H](C1CCCCC1)NC(=O)O[C@@H]1C[C@H]1CCCCCc1c(nc3c(F)cccc3c1OC1CCN(C)CC1)O2)C(=O)NS(=O)(=O)C1(C)CC1` [Example 286, (1aR,5S,8S,10R,22aR)-5-cyclohexyl-N-[(1R,2S)-2-ethenyl-1-{[(1-methylcyclopropyl)sulfonyl]carbamoyl}cyclopropyl]-13-fluoro-17-[(1-methylpiperidin-4-yl)oxy]-3,6-dioxo-1,1a,3,4,5,6,9,10,18,19,20,21,22,22a-tetradecahydro-8H-7,10-methanocyclopropa[18,19][1,10,3,6]dioxadiazacyclononadecino[11,12-b]quinoline-8-carboxamide], for which the figures for the inhibition constant Ki in experiment [1] (setting [3]), in experiment [1] (setting [4]) and in experiment [2] were 0.022 nM, 0.094 nM and 0.515 nM, respectively.

`C=C[C@@H]1C[C@]1(NC(=O)[C@@H]1C[C@@H]2CN1C(=O)[C@H](C1CCCCC1)NC(=O)O[C@@H]1C[C@H]1CCCCCc1c(nc3ccccc3c1OC1CC3COCC(C1)N3C(=O)OC(C)(C)C)O2)C(=O)NS(=O)(=O)C1(C)CC1` (stereo partly drawn) [Example 287, tert-butyl 7-{[(1aR,5S,8S,10R,22aR)-5-cyclohexyl-8-{[(1R,2S)-2-ethenyl-1-{[(1-methylcyclopropyl)sulfonyl]carbamoyl}cyclopropyl]carbamoyl}-3,6-dioxo-1,1a,3,4,5,6,9,10,18,19,20,21,22,22a-tetradecahydro-8H-7,10-methanocyclopropa[18,19][1,10,3,6]dioxadiazacyclononadecino[11,12-b]quinolin-17-yl]oxy}-3-oxa-9-azabicyclo[3.3.1]nonane-9-carboxylate]: the results for the Ki in experiment [1] (setting [3]), in experiment [1] (setting [4]) and in experiment [2] were 0.092 nM, 2.55 nM and 58 nM, respectively.

As to `C=C[C@@H]1C[C@]1(NC(=O)[C@@H]1C[C@@H]2CN1C(=O)[C@H](C1CCCCC1)NC(=O)O[C@@H]1C[C@H]1CCCCCc1c(nc3ccccc3c1OC1CC3COCC(C1)N3)O2)C(=O)NS(=O)(=O)C1(C)CC1` (stereo partly drawn) [Example 288, (1aR,5S,8S,10R,22aR)-5-cyclohexyl-N-[(1R,2S)-2-ethenyl-1-{[(1-methylcyclopropyl)sulfonyl]carbamoyl}cyclopropyl]-17-(3-oxa-9-azabicyclo[3.3.1]non-7-yloxy)-3,6-dioxo-1,1a,3,4,5,6,9,10,18,19,20,21,22,22a-tetradecahydro-8H-7,10-methanocyclopropa[18,19][1,10,3,6]dioxadiazacyclononadecino[11,12-b]quinoline-8-carboxamide], the Ki in experiment [1] (setting [3]) amounted to 0.018 nM; in experiment [1] (setting [4]), 0.05 nM; in experiment [2], 0.224 nM.

With `C=C[C@@H]1C[C@]1(NC(=O)[C@@H]1C[C@@H]2CN1C(=O)[C@H](C1CCCCC1)NC(=O)O[C@@H]1C[C@H]1CCCCCc1c(nc3ccccc3c1OC1CC3COCC(C1)N3CCOC)O2)C(=O)NS(=O)(=O)C1(C)CC1` (stereo partly drawn) [Example 289, (1aR,5S,8S,10R,22aR)-5-cyclohexyl-N-[(1R,2S)-2-ethenyl-1-{[(1-methylcyclopropyl)sulfonyl]carbamoyl}cyclopropyl]-17-{[9-(2-methoxyethyl)-3-oxa-9-azabicyclo[3.3.1]non-7-yl]oxy}-3,6-dioxo-1,1a,3,4,5,6,9,10,18,19,20,21,22,22a-tetradecahydro-8H-7,10-methanocyclopropa[18,19][1,10,3,6]dioxadiazacyclononadecino[11,12-b]quinoline-8-carboxamide], the Ki was found to be 0.03 nM in experiment [1] (setting [3]), 0.197 nM in experiment [1] (setting [4]) and 3.27 nM in experiment [2].
